Source: PubChem BioAssay (NCI)
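In this assay, cells in 96-well plates receive the compound at five concentrations for 48 hours. Endpoints are linearly interpolated between the surrounding concentrations. At the TGI there is no net growth.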

Tests used:
Experiment in all cases: NCI tumour cell line growth inhibition, 48 h
HS 578T breast = tested on: HS 578T breast
SW-620 colon = tested on: SW-620 colon
PC-3 prostate = tested on: PC-3 prostate
HT29 colon = tested on: HT29 colon
UO-31 renal = tested on: UO-31 renal
SF-539 CNS = tested on: SF-539 CNS
IGROV1 ovarian = tested on: IGROV1 ovarian
COLO 205 colon = tested on: COLO 205 colon
HOP-92 NSCLC = tested on: HOP-92 NSCLC
M14 melanoma = tested on: M14 melanoma
CAKI-1 renal = tested on: CAKI-1 renal
CCRF-CEM leukemia = tested on: CCRF-CEM leukemia
OVCAR-8 ovarian = tested on: OVCAR-8 ovarian
HCC-2998 colon = tested on: HCC-2998 colon
UACC-62 melanoma = tested on: UACC-62 melanoma
A549 NSCLC = tested on: A549 NSCLC
SK-OV-3 ovarian = tested on: SK-OV-3 ovarian
EKVX NSCLC = tested on: EKVX NSCLC
MDA-N = tested on: MDA-N
SF-295 CNS = tested on: SF-295 CNS
OVCAR-5 ovarian = tested on: OVCAR-5 ovarian
MALME-3M melanoma = tested on: MALME-3M melanoma
SF-268 CNS = tested on: SF-268 CNS
SK-MEL-2 melanoma = tested on: SK-MEL-2 melanoma
LOX IMVI melanoma = tested on: LOX IMVI melanoma
RPMI-8226 leukemia = tested on: RPMI-8226 leukemia
SNB-19 CNS = tested on: SNB-19 CNS
KM12 colon = tested on: KM12 colon
MOLT-4 leukemia = tested on: MOLT-4 leukemia
K-562 leukemia = tested on: K-562 leukemia
T-47D breast = tested on: T-47D breast
NCI-H522 lung = tested on: NCI-H522 lung
MDA-MB-435 = tested on: MDA-MB-435
786-0 renal = tested on: 786-0 renal
NCI-H23 lung = tested on: NCI-H23 lung
UACC-257 melanoma = tested on: UACC-257 melanoma
TK-10 renal = tested on: TK-10 renal
NCI/ADR-RES ovarian = tested on: NCI/ADR-RES ovarian
HCT-15 colon = tested on: HCT-15 colon
ACHN renal = tested on: ACHN renal
HCT-116 colon = tested on: HCT-116 colon
SNB-75 CNS = tested on: SNB-75 CNS
MDA-MB-231 breast = tested on: MDA-MB-231 breast
A498 renal = tested on: A498 renal
U251 CNS = tested on: U251 CNS
SN12C renal = tested on: SN12C renal
SK-MEL-5 melanoma = tested on: SK-MEL-5 melanoma
MCF7 breast = tested on: MCF7 breast
DU-145 prostate = tested on: DU-145 prostate
RXF 393 renal = tested on: RXF 393 renal
NCI-H226 lung = tested on: NCI-H226 lung
OVCAR-3 ovarian = tested on: OVCAR-3 ovarian
SK-MEL-28 melanoma = tested on: SK-MEL-28 melanoma
HOP-62 NSCLC = tested on: HOP-62 NSCLC
NCI-H460 lung = tested on: NCI-H460 lung
SR leukemia = tested on: SR leukemia
OVCAR-4 ovarian = tested on: OVCAR-4 ovarian

Measured: TGI

CCOC(=O)C1C(c2ccco2)C2(C#N)C(=N)OC1(C)C2(C#N)C#N (configuration not stated)
not listed: OVCAR-3 ovarian | SK-MEL-28 melanoma | HOP-62 NSCLC | NCI-H460 lung | SR leukemia | OVCAR-4 ovarian
> 100 µM: all other assays above

OC1C2CCC3C2CC(C(O)(c2ccccc2)c2ccccc2)C13 (configuration not stated)
87.3 µM: OVCAR-3 ovarian
95.1 µM: CCRF-CEM leukemia
74 µM: MOLT-4 leukemia
96.6 µM: RXF 393 renal
48.2 µM: SK-MEL-2 melanoma
71.3 µM: MALME-3M melanoma
37.2 µM: COLO 205 colon
92.6 µM: NCI-H226 lung
43.9 µM: SNB-75 CNS
69.7 µM: SR leukemia
95.6 µM: UACC-257 melanoma
47 µM: SN12C renal
not listed: RPMI-8226 leukemia
> 100 µM: all other assays above
